Common to all, as to format: cell-based, human
One test deals with RL CD19+ tumor cells. Briefly: Acute cytolytic activity, anti-CD19 CAR T cells co-cultured with RL CD19+ tumor cells. The method, then: Anti-CD19 CAR T cells were co-cultured with RL CD19+ tumor cells at an effector to target (E:T) ratio of 1:1, in the presence of (S)-3-[4-(4-morpholin-4-ylmethyl-benzyloxy)-1-oxo-1,3-dihydro-isoindol-2-yl]-piperidine-2,6-dione (Compound A) (0.001 μM, 0.01 μM or 0.1 μM). Acute cytolytic activity was measured by tumor cell number over time. […] Co-culture of CAR T cells with RL resistant tumor cells in the presence of Compound A improved cytolytic CAR T cell function, […]

The test system of test [1] is K562.CD19, Raji, Granta-519 cells. Briefly: Cytolytic activity of chronically stimulated CAR T cells with rescue treatment, CD19+ tumor cells. The note with it: 0.001 μM or 0.01 μM, E:T 1:1, vs control. On the procedure:
(§1) Anti-CD19 CAR-expressing T cells from three donors, produced as described in Example 1, were stimulated under conditions to induce chronic stimulation (to produce hypofunctional, exhausted T cells) and then were subsequently treated (rescue) with (S)-3-[4-(4-morpholin-4-ylmethyl-benzyloxy)-1-oxo-1,3-dihydro-isoindol-2-yl]-piperidine-2,6-dione (Compound A), or a vehicle control. Long-term, chronic stimulation was carried out by stimulation of CAR T cells with 30 μg/mL plate-bound anti-idiotypic (anti-ID) antibody for 6 days, substantially as described in Example 3 but in the absence of Compound A. After the chronic stimulation, the CAR-T cells were rechallenged with CD19-expressing target cells in the presence of Compound A, and cytolytic activity or cytokine production was assessed.
CAR T cells that had been stimulated for 6 days with anti-ID were co-cultured with CD19+ tumor cells at an effector to target (E:T) ratio of 1:1, in the presence of Compound A (0.001 μM or 0.01 μM). The assessed CD19+ tumor cells included K562 cells transduced with CD19 (K562.CD19), Raji cells or Granta-519 cells.

In test [2] the test system is Granta-519 tumor spheroids. In words: Spheroid tumor growth assay after chronic stimulation with concurrent treatment. The method, then: CAR T cells that had been stimulated for 6 days with anti-ID concurrently in the presence of Compound A (0.001 μM or 0.01 μM) were co-cultured with by incubation with Granta-519 tumor spheroids, and CAR T cell cytolytic function and cytokine function were assessed at various time points. For comparison, cytolytic activity was also assessed for cells that had been similarly chronically stimulated with anti-ID in the presence of 1 μM or 0.1 μM Compound B. Averaged measurement of tumor spheroid size at various times following co-culture with CAR-T cells was monitored.
Cytokines (IFNγ, IL-2 and TNFalpha) were measured from supernatant of the chronically stimulated CAR T cells above that had been co-cultured for 5 days with CD19 tumor spheroids. The log 2 fold change compared to control cells (chronically stimulated cells that had not been concurrently treated with Compound A immunomodulatory compound) is shown in FIG. 3F.

The next test relates to RL cells. In words: Rescue of chronically stimulated CAR T cells cultured with RL cells. Particulars: Compound B 1 μM, Compound A 0.001, 0.01 or 0.1 μM. On the procedure:
The RL cells were further used to assess the ability of immunomodulatory compounds to rescue or reverse the anti-CD19 CAR T cells from exhaustion. Anti-CD19 CAR-expressing T cells were stimulated under conditions to induce chronic stimulation and then were subsequently treated (rescue) with Compound B (1 μM) or Compound A (0.001 μM, 0.01 μM or 0.1 μM), or a vehicle control. Long-term, chronic stimulation was carried out by stimulation of CAR T cells with 30 μg/mL plate-bound anti-idiotypic (anti-ID) antibody for 6 days, substantially as described in Example 3. After the chronic stimulation, the CAR-T cells were cultured with RL cells in the presence of Compound B or Compound A. Cytolytic activity was assessed over time by measuring tumor cell number in the culture.

The test system of another test is RL tumor spheroids. In words: RL tumor spheroid model with anti-CD19 CAR T cells. Particulars: Day 4; 1 μM Compound B, 0.01 μM or 0.1 μM Compound A. The method, then: Cytolytic activity was also assessed in a spheroid model. About 5,000 RL cells were plated 48 hours prior to addition of 5,000 anti-CD19 CAR T cells (1:1 E:T ratio). Anti-CD19 CAR T cells were co-cultured with RL tumor spheroids, in the presence of Compound B (1 μM) or Compound A (0.001 μM, 0.01 μM or 0.1 μM)).

The test system of test [3] is Granta-519 tumor spheroids. Briefly: Spheroid tumor growth assay, rescue treatment of chronically stimulated CAR T cells. On the procedure: as §1
CAR T cells that had been stimulated for 6 days with anti-ID were co-cultured by incubation with Granta-519 tumor spheroids, in the presence or absence of Compound A (0.001 μM or 0.01 μM). Cells were assessed at various time points for cytolytic function and cytokine function. For comparison, cytolytic activity was also assessed for cells that had been similarly chronically stimulated with anti-ID, followed by co-culture in the presence of 1 μM or 0.1 μM Compound B. Averaged measurement of tumor spheroid size at Day 9 following co-culture with CAR-T cells was assessed. […] The improvement in cytolytic function was greater following rescue treatment with Compound A than Compound B. Cytokines (IFNγ, IL-2 and TNFalpha) were measured from supernatant of the chronically stimulated CAR T cells above that had been co-cultured for 5 days with CD19 tumor spheroids. The log 2 fold change compared to control cells (chronically stimulated cells that had not been treated with immunomodulatory compound) is shown in FIG. 4C.

For test [4], the system named is Raji or Granta-519 lymphoma cells. Briefly: Cytolytic assay of CAR T cells treated 3 days, Raji or Granta-519 target cells. The note with it: 1 nM, 10 nM or 100 nM, 3 days treatment. On the procedure:
After 3 days of treatment with Compound A, anti-CD19 CAR T cells were co-cultured with Raji or Granta-519 lymphoma cells using a cytolytic assay. To assess cytolytic activity, the target cells were labeled with NucLight Red (NLR) to permit tracking by fluorescent microscopy. Killing activity was assessed by measuring the loss of viable target cells over 200 hours, as determined by loss of fluorescent signal over time by kinetic fluorescence microscopy (using the INCUCYTE® Live Cell Analysis System, Essen Bioscience). Tumor cell numbers were normalized to time zero and measured over time (mean±SEM).
FIG. 7B depicts the tumor cell numbers of anti-CD19 CAR T cells treated with 1 nM, 10 nM, or 100 nM Compound A as compared with vehicle control (no Compound A) and tumor only.

Where [5] appears, read: 5 days co-culture with spheroids.

The structures appear in SMILES notation.

For `O=C1CC[C@H](N2Cc3c(OCc4ccc(CN5CCOCC5)cc4)cccc3C2=O)C(=O)N1` [Compound A, (S)-3-[4-(4-morpholin-4-ylmethyl-benzyloxy)-1-oxo-1,3-dihydro-isoindol-2-yl]-piperidine-2,6-dione], in the test on RL CD19+ tumor cells (0.01 μM or 0.1 μM), the “sensitivity of RL tumor cell line to monotherapy” value is recorded as “sensitive”. Also, in the test with RL CD19+ tumor cells (co-culture, E:T 1:1, 0.001, 0.01 or 0.1 μM), the “cytolytic CAR T cell function against RL tumor cells” value was “improved”. For the same compound, the “cytolytic activity (tumor cell number over time)” value in test [1] is “statistically significant improvement”. Moreover, the “cytolytic function, average tumor volume after 9 days” value in test [2] is reported as “significantly increased cytolytic function”. Moreover, the “cytolytic function, Granta-519 spheroid growth” value in test [2] (0.001 μM or 0.01 μM) was “improved cytolytic function”. Further, the “IFNγ in co-culture supernatant” value in test [2] (setting [5]) and in test [3] (setting [5]) was “statistically significant increase” in each case. In addition, the “improvement in cytolytic function compared with Compound B” value in test [2] (Compound B 1 μM or 0.1 μM) and in test [3] (Compound B 1 μM or 0.1 μM) was “greater” in each case. The “CAR T cell cytolytic activity, RL cell growth” value in the test on RL cells is recorded as “substantially improved”. Further, the “sensitivity of RL tumor spheroids to compound” value with RL tumor spheroids is “sensitive”. Moreover, the “CAR T cell cytolytic function, Granta-519 spheroid growth” value in test [3] (0.001 μM or 0.01 μM, Day 9) was “improved”. Further, the “cytolytic activity against target cells” value in test [4] was “improved”.

For the origin of these results see patent US20220401483A1, “COMBINATION OF A T CELL THERAPY AND (S)-3-[4-(4-MORPHOLIN-4-YLMETHYL-BENZYLOXY)-L-OXO-L,3-DIHYDRO-ISOINDOL-2-YL]-PIPERIDINE-2,6-DIONE” (Juno Therapeutics, Inc., priority 2019, published 2022).
